The values that follow come from US9073855B2, “BCL-2 selective apoptosis-inducing agents for the treatment of cancer and immune diseases” (AbbVie Inc., priority 2008, dated 2015).

One assay addresses GST-Bcl-2 (Homo sapiens, UniProt P10415). Put plainly: TR-FRET binding assay, GST-Bcl-2 with F-Bak peptide probe. To be noted: TR-FRET Binding Affinity, GST-Bcl-2, F-Bak peptide probe. In a few lines: (§1)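 Compounds were serially diluted in DMSO from a 50 μM starting solution (2× the starting concentration; 10% DMSO). Plates were incubated for 3 h at room temperature, and TR-FRET was read with 340/35 nm excitation and emission at 520/525 nm (F-Bak) and 495/510 nm (Tb antibody). Ki values were calculated using Wang's competitive-binding equation.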
For orientation: In TR-FRET formats the signal depends on donor and acceptor labels being close together.

The target in another assay is GST-Bcl-XL (Homo sapiens, UniProt Q07817). The experiment in a line: TR-FRET binding assay, GST-Bcl-XL with F-Bak peptide probe. The following applies: TR-FRET Binding Affinity, GST-Bcl-XL, F-Bak peptide probe. In a few lines:
as §1

Another assay concerns FL5.12/Bcl-2 cells. The experiment in a line: FL5.12/Bcl-2 cell viability assay under IL-3 withdrawal (CellTitre Glo). Type of assay: cell-based, murine. The following applies: Mus musculus, IL-3 withdrawn 48 hrs, then 24 hrs with compound. The essentials:
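Viability measured by CellTitre Glo after FL5.12/Bcl-2 murine cells, starved of IL-3 for 48 hrs, were treated with compounds for another 24 hrs. Killing reflects inhibition of Bcl-2 sequestration of Bim and Puma.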

SMILES strings stand for the structures.

GST-Bcl-XL, sequence (Q07817 whole entry): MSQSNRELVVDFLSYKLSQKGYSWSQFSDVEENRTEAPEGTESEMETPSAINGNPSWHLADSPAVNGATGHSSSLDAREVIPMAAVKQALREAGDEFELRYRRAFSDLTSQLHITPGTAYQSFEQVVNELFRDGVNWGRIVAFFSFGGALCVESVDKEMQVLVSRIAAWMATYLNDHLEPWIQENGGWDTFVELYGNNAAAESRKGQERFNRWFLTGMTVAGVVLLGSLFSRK
GST-Bcl-2, sequence (P10415 whole entry): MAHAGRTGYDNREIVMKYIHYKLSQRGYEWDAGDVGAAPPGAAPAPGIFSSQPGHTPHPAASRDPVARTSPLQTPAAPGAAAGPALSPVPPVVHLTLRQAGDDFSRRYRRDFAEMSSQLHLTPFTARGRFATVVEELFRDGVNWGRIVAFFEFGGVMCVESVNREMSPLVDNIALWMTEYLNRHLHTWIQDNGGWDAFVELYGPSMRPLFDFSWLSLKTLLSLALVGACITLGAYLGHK

As to `O=C(NS(=O)(=O)c1ccc(NCC2CCOCC2)c([N+](=O)[O-])c1)c1ccc(N2CCN(CC3=C(c4ccc(Cl)cc4)CCC(O)C3)CC2)cc1Oc1ccc2[nH]ccc2c1` (stereo not drawn) [Example 248, 4-(4-{[2-(4-chlorophenyl)-5-hydroxycyclohex-1-en-1-yl]methyl}piperazin-1-yl)-2-(1H-indol-5-yloxy)-N-({3-nitro-4-[(tetrahydro-2H-pyran-4-ylmethyl)amino]phenyl}sulfonyl)benzamide], the inhibition constant (Ki) (usually the dissociation constant of the complex between target and ligand, obtained from inhibition or displacement) on GST-Bcl-2 was found to be 0.013 nM; on GST-Bcl-XL, 155 nM. Moreover, the EC50 (in general, the concentration that produces a half-maximal response) with FL5.12/Bcl-2 cells stood at 49.8 nM.
Take `O=C(NS(=O)(=O)c1ccc(NCC2CCOCC2)c([N+](=O)[O-])c1)c1ccc(N2CCN(CC3=C(c4ccc(Cl)cc4)CCC(N4CCOCC4)C3)CC2)cc1Oc1ccc2[nH]ccc2c1` (stereo not drawn) [Example 249, 4-(4-{[2-(4-chlorophenyl)-5-morpholin-4-ylcyclohex-1-en-1-yl]methyl}piperazin-1-yl)-2-(1H-indol-5-yloxy)-N-({3-nitro-4-[(tetrahydro-2H-pyran-4-ylmethyl)amino]phenyl}sulfonyl)benzamide]: the Ki on GST-Bcl-2 was 0.09 nM; on GST-Bcl-XL it was above 660 nM. For the same compound, the EC50 in the assay on FL5.12/Bcl-2 cells amounted to 41.2 nM.
Take `CC1(C)CCC(CN2CCN(c3ccc(C(=O)NS(=O)(=O)c4ccc(NCC5(N)CCCCC5)c([N+](=O)[O-])c4)c(Oc4ccc5[nH]ccc5c4)c3)CC2)=C(c2ccc(Cl)cc2)C1` [Example 250, N-[(4-{[(1-aminocyclohexyl)methyl]amino}-3-nitrophenyl)sulfonyl]-4-(4-{[2-(4-chlorophenyl)-4,4-dimethylcyclohex-1-en-1-yl]methyl}piperazin-1-yl)-2-(1H-indol-5-yloxy)benzamide]: the inhibition constant Ki was 0.266 nM on GST-Bcl-2 and 215 nM on GST-Bcl-XL. Moreover, in the assay on FL5.12/Bcl-2 cells, the concentration for a half-maximal effect (EC50) turned out to be 79.5 nM.
For the compound `CC1(C)CCC(CN2CCN(c3ccc(C(=O)NS(=O)(=O)c4ccc(NCCN5CCCC5=O)c([N+](=O)[O-])c4)c(Oc4ccc5[nH]ccc5c4)c3)CC2)=C(c2ccc(Cl)cc2)C1` [Example 251, 4-(4-{[2-(4-chlorophenyl)-4,4-dimethylcyclohex-1-en-1-yl]methyl}piperazin-1-yl)-2-(1H-indol-5-yloxy)-N-[(3-nitro-4-{[2-(2-oxopyrrolidin-1-yl)ethyl]amino}phenyl)sulfonyl]benzamide], the results for the Ki on GST-Bcl-2 and at GST-Bcl-XL were 0.328 nM and 472 nM, respectively. The EC50 in the assay with FL5.12/Bcl-2 cells came to 78.1 nM.
Regarding `CC(c1ccccc1-c1ccc(Cl)cc1)N1CCN(c2ccc(C(=O)NS(=O)(=O)c3ccc(NCC4CCOCC4)c([N+](=O)[O-])c3)c(Oc3ccc4[nH]ccc4c3)c2)CC1` (stereo not drawn) [Example 252, 4-{4-[1-(4′-chloro-1,1′-biphenyl-2-yl)ethyl]piperazin-1-yl}-2-(1H-indol-5-yloxy)-N-({3-nitro-4-[(tetrahydro-2H-pyran-4-ylmethyl)amino]phenyl}sulfonyl)benzamide], the figures for the inhibition constant (Ki) on GST-Bcl-2 and at GST-Bcl-XL were 0.077 nM and above 660 nM, respectively. Moreover, the EC50 with FL5.12/Bcl-2 cells turned out to be 6.62 nM.
In the case of `CC(C1=C(c2ccc(Cl)cc2)CC(C)(C)CC1)N1CCN(c2ccc(C(=O)NS(=O)(=O)c3ccc(NCC4CCOCC4)c([N+](=O)[O-])c3)c(Oc3ccc4[nH]ccc4c3)c2)CC1` (stereo not drawn) [Example 253, 4-(4-{1-[2-(4-chlorophenyl)-4,4-dimethylcyclohex-1-en-1-yl]ethyl}piperazin-1-yl)-2-(1H-indol-5-yloxy)-N-({3-nitro-4-[(tetrahydro-2H-pyran-4-ylmethyl)amino]phenyl}sulfonyl)benzamide], the Ki at GST-Bcl-2 was 0.142 nM; on GST-Bcl-XL, above 660 nM. Also, the EC50 in the assay with FL5.12/Bcl-2 cells is 7.58 nM.
Take `CC(C1=C(c2ccc(Cl)cc2)CC(C)(C)CC1)N1CCN(c2ccc(C(=O)NS(=O)(=O)c3ccc(NN4CCN(C)CC4)c([N+](=O)[O-])c3)c(Oc3ccc4[nH]ccc4c3)c2)CC1` (stereo not drawn) [Example 254, 4-(4-{1-[2-(4-chlorophenyl)-4,4-dimethylcyclohex-1-en-1-yl]ethyl}piperazin-1-yl)-2-(1H-indol-5-yloxy)-N-({4-[(4-methylpiperazin-1-yl)amino]-3-nitrophenyl}sulfonyl)benzamide]: the results for the Ki on GST-Bcl-2 and at GST-Bcl-XL were 0.126 nM and 53.3 nM, respectively. For the same compound, the EC50 in the assay on FL5.12/Bcl-2 cells came to 16.9 nM.
Turning to `C[C@H](c1ccccc1-c1ccc(Cl)cc1)N1CCN(c2ccc(C(=O)NS(=O)(=O)c3ccc(NCC4CCOCC4)c([N+](=O)[O-])c3)c(Oc3cccc4[nH]ccc34)c2)CC1` [Example 255, 4-{4-[(1R)-1-(4′-chloro-1,1′-biphenyl-2-yl)ethyl]piperazin-1-yl}-2-(1H-indol-4-yloxy)-N-({3-nitro-4-[(tetrahydro-2H-pyran-4-ylmethyl)amino]phenyl}sulfonyl)benzamide], the Ki was 7.83 nM on GST-Bcl-2 and above 660 nM on GST-Bcl-XL. Also, the EC50 in the assay with FL5.12/Bcl-2 cells is above 500 nM.
Consider `C[C@@H](c1ccccc1-c1ccc(Cl)cc1)N1CCN(c2ccc(C(=O)NS(=O)(=O)c3ccc(NCC4CCOCC4)c([N+](=O)[O-])c3)c(Oc3cccc4[nH]ccc34)c2)CC1` [Example 256, 4-{4-[(1S)-1-(4′-chloro-1,1′-biphenyl-2-yl)ethyl]piperazin-1-yl}-2-(1H-indol-4-yloxy)-N-({3-nitro-4-[(tetrahydro-2H-pyran-4-ylmethyl)amino]phenyl}sulfonyl)benzamide], for which the Ki at GST-Bcl-2 is 0.12 nM; at GST-Bcl-XL it was above 660 nM. In addition, the EC50 with FL5.12/Bcl-2 cells came to 8.89 nM.
Consider `CC(C1=C(c2ccc(Cl)cc2)CC(C)(C)CC1)N1CCN(c2ccc(C(=O)NS(=O)(=O)c3ccc(NCCCN4CCOCC4)c([N+](=O)[O-])c3)c(Oc3ccc4[nH]ccc4c3)c2)CC1` (stereo not drawn) [Example 257, 4-(4-{1-[2-(4-chlorophenyl)-4,4-dimethylcyclohex-1-en-1-yl]ethyl}piperazin-1-yl)-2-(1H-indol-5-yloxy)-N-({4-[(3-morpholin-4-ylpropyl)amino]-3-nitrophenyl}sulfonyl)benzamide], for which the Ki at GST-Bcl-2 stood at 0.171 nM; at GST-Bcl-XL, 17.1 nM. Also, the EC50 with FL5.12/Bcl-2 cells was determined as 9.34 nM.
For `CC(C1=C(c2ccc(Cl)cc2)CC(C)(C)CC1)N1CCN(c2ccc(C(=O)NS(=O)(=O)c3ccc(NC4CCN(C5CCOCC5)CC4)c([N+](=O)[O-])c3)c(Oc3ccc4[nH]ccc4c3)c2)CC1` (stereo not drawn) [Example 258, 4-(4-{1-[2-(4-chlorophenyl)-4,4-dimethylcyclohex-1-en-1-yl]ethyl}piperazin-1-yl)-2-(1H-indol-5-yloxy)-N-({3-nitro-4-[(1-tetrahydro-2H-pyran-4-ylpiperidin-4-yl)amino]phenyl}sulfonyl)benzamide], in that order: 0.048 nM, 4.08 nM and 9.11 nM.
For `CC1(C)CCC(CN2CCN(c3ccc(C(=O)NS(=O)(=O)c4ccc(NCC5CCCCC5)c([N+](=O)[O-])c4)c(Oc4ccc5[nH]ccc5c4)c3)CC2)=C(c2ccc(Cl)cc2)C1` [Example 259, 4-(4-{[2-(4-chlorophenyl)-4,4-dimethylcyclohex-1-en-1-yl]methyl}piperazin-1-yl)-N-({4-[(cyclohexylmethyl)amino]-3-nitrophenyl}sulfonyl)-2-(1H-indol-5-yloxy)benzamide], in that order: 1.99 nM, above 660 nM and above 500 nM.
